Laboratory results as given in a compilation of properties of binary mixtures (doi:10.1021/acs.jpcb.8b06939).

Experiment: xn = mol fraction of the nth substance listed
Conditions: 100 kPa

O=C[C@H](O)[C@@H](O)[C@H](O)[C@H](O)CO + CC(=O)[O-].CC[n+]1ccn(C)c1
viscosity [mPa·s]
Conditions | x1 = 0.0095 | x1 = 0.0284 | x1 = 0.0474 | x1 = 0.095 | x1 = 0.1429
282.5 K | – | – | 756 | 2299 | –
283.3 K | – | – | – | – | 7397
292.4 K | 185 | 245 | 339 | 870 | –
293.3 K | – | – | – | – | 2397
302.1 K | – | – | – | – | 921
303 K | 100 | 123 | 165 | 380 | –
312.5 K | 61 | 73 | 97 | 193 | –
322.6 K | 38 | 45 | 58 | 111 | 207
332.2 K | 28 | 32 | 39 | 68 | –
341.3 K | – | 23 | – | 47 | –
342.5 K | 20 | – | 29 | – | 77
352.1 K | 15 | 18 | 21 | 34 | 53
362.3 K | 13 | 14 | 16 | 24 | 38
371.7 K | 11 | 12 | 13 | – | 28

OC[C@H]1O[C@@H](O[C@H]2[C@H](O)[C@@H](O)C(O)O[C@@H]2CO)[C@H](O)[C@@H](O)[C@@H]1O (stereo partly specified) + CC(=O)[O-].CC[n+]1ccn(C)c1
viscosity [mPa·s]
Conditions | x1 = 0.005 | x1 = 0.0151 | x1 = 0.0255 | x1 = 0.0524 | x1 = 0.0807
282.5 K | 407 | 517 | 756 | 2299 | –
283.3 K | – | – | – | – | 7397
292.4 K | 185 | 245 | – | 870 | –
293.3 K | – | – | – | – | 2397
303 K | 100 | 123 | 165 | 380 | –
312.5 K | – | – | 97 | 193 | 419
322.6 K | 38 | – | 58 | 111 | –
332.2 K | 28 | 32 | – | 68 | –
341.3 K | – | 23 | – | 47 | –
342.5 K | – | – | 29 | – | 77
352.1 K | 15 | 18 | 21 | 34 | 53
362.3 K | 13 | 14 | 16 | 24 | 38
371.7 K | 11 | 12 | 13 | – | 28
373.1 K | – | – | – | 19 | –
